Data taken from patent US4514404A, “Process for obtaining complex of 3-methoxy-N-methylmorphinan with 7-theophyllineacetic acid (1:2)” (Prodes, S.A., priority 1982, dated 1985).
Values joined by “and” are separate entries in the source; they are usually repeats but may differ in a detail not shown here. Equal values may be shown once. “Also recorded” adds a separate entry of the source.

What was measured:
cough = assay: antitussive activity: cough induced by sulfuric acid atmosphere (Chen et al. 1960), oral; format: in vivo, guinea pig (male); details: for inhibition of the cough (individual animal) / number of coughs after administration (individual animal) / inhibition of the cough, average value: one hour after administration; for inhibition of the cough (individual animal) / number of coughs after administration (individual animal): individual animals
Protocol: This activity has been compared with the activity of codeine and dextromethorphan by the experimental mode of Chen, J.Y.P. and col. (1960), consisting in exciting guinea pigs subjected to an atmosphere of sulfuric acid to cough.
There are used guinea pig males having a weight of 300-400 grs which are treated in respective lots, with codeine (40 mg/kg.; n=6), dextromethorphan (40 mg/kg.; n=6), theophane (20 mg/kg.; n=5) and theophane (40 mg/kg.; n=6), wherein "n" signifies the number of animals tested in the respective lots and the other data in the parentheses refers to the dosage amount, e.g. 40 mg/kg. The numbers of occurrences of coughing of each animal before and one hour after the oral administration of the drug are measured.
In Table I are detailed the results obtained by the experiment, before and after the administration of the drug as well as the percentage of inhibition of the cough.

[1] = tested on: tracheal chain of guinea pigs; assay: bronchodilatory activity in vitro, tracheal chain of guinea pigs (Castillo and de Beer), histamine as bronchoconstrictor; set-up: species or system guinea pig (male); details: for time elapsed until obtaining an activity of 50%: 5×10^-4 molar
Source text: The bronchodilatory activity "in vitro" of the compound of the present invention has been studied, using the method of tracheal chain of guinea pigs, described by J. C. Castillo and E. J. J. de Beer in Pharmacol.Expt. Therap., 90, 104. The trachea of male guinea pigs having a weight of 250-350 grs were extracted; then the rings are sectioned, always endeavoring that the trachea is bathed by the corresponding perfusion liquid and under oxygenation conditions for joining posteriorly the tracheal rings by means of a silk yarn forming the chain giving response to the drugs to be administered. The chain is placed in the bath of organs fixed to the registering arm of a chymograph. The bath is to be maintained at the constant temperature of 37.5° C. and using, as the liquid, the Krebs-Hanselett solution.
As a bronchoconstrictor drug, there is used histamine at a concentration of 1×10^-5 molar.
The bronchodilatory activity of theophane and theophylline have been compared, for various dosages, and the results obtained are presented in Table II.

rat = assay: acute toxicity in the rat (Litchfield and Wilcoxon); format: in vivo
Source text: (§1) The acute toxicity of theophane has been studied orally and i.p. in the mouse and in the rat. The LD50 and the limits of reliance have been determined by the technique of Litchfield and Wilcoxon. Table III summarizes the values of the obtained LD50, as well as of LD0.

mouse = assay: acute toxicity in the mouse (Litchfield and Wilcoxon); format: in vivo
Source text: as §1

Wistar rats = assay: subacute toxicity, repeated oral administration over 1 month; format: in vivo, rat (Wistar); details: 20, 60 and 120 mg/kg/day oral, both sexes
Protocol: The subacute toxicity of theophane has been studied after repeated oral administrations over a period of 1 month in Wistar rats of both sexes. The theophane dosage used was 20 mg/kg/day, 60 mg/kg/day and 120 mg/kg/day. One lot of control animals received only excipient.

[2] = tested on: Sprague-Dawley rats and fetuses of the first generation; assay: fetal and teratogenous toxicity, oral during organogenesis; format: in vivo, rat (Sprague-Dawley); details: 20, 65 and 130 mg/kg/day oral
[3] = tested on: auxotrophic S.typhimurium strains; assay: mutagenic effect (Ames); format: cell-based; details: six dosages in DMSO, presence and absence of metabolic activation
Source text: The possible mutagenic effect of theophane has been evaluated according to the text described by Ames, B. N. and cols (1975) using auxotrophic S.typhimurium strains for the histidine. The product has been studied at six different dosages, dissolved in DMSO, and in the presence and absence of a system of metabolic activation and in front of positive controls.

cardiovascular system = assay: cardiovascular activity (technique of Smith, 1961); format: in vivo, guinea pig (male); details: 0.5 to 10 mg/kg
Source text: The cardiovascular activity (technique of Smith, 1961) and the neuropharmacological activity (Irwin test) of the theophane product have been studied respectively in guinea pigs and rats (males).

[4] = 40 mg/kg oral, n=6, codeine p < 0.001, dextromethorphan and theophane p < 0.005

SMILES: COc1ccc2c3c1O[C@H]1[C@@H](O)C=C[C@H]4[C@@H](C2)N(C)CC[C@@]341 [Codeine, reference compound]
- inhibition of the cough (individual animal) (cough; 40 mg/kg oral): 71.4% and 100.0% and 81.8%
- number of coughs after administration (individual animal) (cough; 40 mg/kg oral): 2 and 0
- inhibition of the cough, average value (cough; [4]): 92.2 ± 12.5%

SMILES: COc1ccc2c(c1)[C@]13CCCC[C@@H]1[C@H](C2)N(C)CC3 [Dextromethorphan, reference compound]
- inhibition of the cough (individual animal) (cough; 40 mg/kg oral): 33.3% and 60.0% and 100.0% and 75.0% and 50.0%
- number of coughs after administration (individual animal) (cough; 40 mg/kg oral): 4 and 6 and 0 and 1
- inhibition of the cough, average value (cough; [4]): 69.7 ± 27.0%

SMILES: COc1ccc2c(c1)[C@@]13CCCC[C@H]1[C@@H](C2)N(C)CC3.Cn1c(=O)c2c(ncn2CC(=O)O)n(C)c1=O.Cn1c(=O)c2c(ncn2CC(=O)O)n(C)c1=O [Theophane, complex of 3-methoxy-N-methylmorphinan with 7-theophyllineacetic acid (1:2)]
- inhibition of the cough (individual animal) (cough; 20 mg/kg oral): 33.3% and 28.57% and 66.6% and 60.0%
- number of coughs after administration (individual animal) (cough; 20 mg/kg oral): 4 and 10 and 1 and 2
- inhibition of the cough, average value (cough; 20 mg/kg oral, n=5, p < 0.005): 44.35 ± 17.5%
- inhibition of the cough (individual animal) (cough; 40 mg/kg oral): 60.0% and 72.2% and 30.7% and 100.0%
- number of coughs after administration (individual animal) (cough; 40 mg/kg oral): 2 and 5 and 9 and 0 and 4
- inhibition of the cough, average value (cough; [4]): 70.5 ± 26.6%
- antitussive activity (in words) (cough; oral, 20 and 40 mg/kg, guinea pigs): potent antitussive activity; also recorded: antitussive activity which is significant with regard to its proper control
- antitussive activity based on the 3-methoxy-N-methylmorphinan content, compared with dextromethorphan (cough; referring to the weight index, 40 mg/kg): greater antitussive activity
- bronchodilatory activity in vitro compared with theophylline (in words) [1]: bronchodilatory activity "in vitro" at lower concentrations than theophylline
- bronchodilatory activity ([1]; 1 × 10^-3 molar, 1000 µM): 100%
- bronchodilatory activity ([1]; 1 × 10^-4 molar, 100 µM): 54.6%
- bronchodilatory activity ([1]; 1 × 10^-5 molar, 10 µM): 0%
- bronchodilatory activity ([1]; 2 × 10^-4 molar, 200 µM): 37.5%
- time elapsed until obtaining an activity of 50% [1]: 280 s
- bronchodilatory activity ([1]; 5 × 10^-4 molar, 500 µM): 85.3%
- bronchodilatory activity ([1]; 5 × 10^-5 molar, 50 µM): 8.3%
- LD0 (rat; i.p.): 156.4 mg/kg
- LD0 (rat; oral): 204.4 mg/kg
- LD0 (mouse; i.p.): 102.3 mg/kg
- LD0 (mouse; oral): 182.2 mg/kg
- subacute toxicity (mortality, weight, diet consumption, hematic, biochemical, urinary parameters, histopathology) (Wistar rats): null toxicity
- teratogenous effects [2]: does not induce teratogenous effects
- toxic effects to gestating females and their offspring [2]: does not produce toxic effects to the gestating females and their offspring
- mutagenic activity [3]: does not have any mutagenic activity
- reversion increase [3]: No reversion increase could be observed
- effects on the cardiovascular system (cardiovascular system): do not produce effects on the cardiovascular system

SMILES: Cn1c(=O)c2[nH]cnc2n(C)c1=O [Theophylline]
- time elapsed until obtaining an activity of 50% [1]: 180 s
- inhibition at 1000 µM ([1]; Cavia porcellus, 1 × 10^-3 molar): 100%
- inhibition at 100 µM ([1]; Cavia porcellus, 1 × 10^-4 molar): 10.4%
- inhibition at 10 µM ([1]; Cavia porcellus, 1 × 10^-5 molar): 0%
- inhibition at 200 µM ([1]; Cavia porcellus, 2 × 10^-4 molar): 30%
- inhibition at 20 µM ([1]; Cavia porcellus, 2 × 10^-5 molar): 6.25%
- inhibition at 500 µM ([1]; Cavia porcellus, 5 × 10^-4 molar): 59.1%
